From article PMC7470982 (2020)

Columns and labels:
[1] = system: FC-KITT (DNA, i motif) CCCTCCTCCCAGCGCCCTCCCT; assay: FRET melting; settings: 100 mM KCl, potassium phosphate 60 mM; 1× BPES, pH 5.5; 0.2 μM DNA, 4 μM compound
[2] = system: Fpy39T (DNA, i motif) CAGCCCCGCTCCCGCCCCCTTCCTCCCGCGCCCGCCCCT; assay: FRET melting; settings: 100 mM KCl, potassium phosphate 60 mM; 1× BPES, pH 5.5; 0.2 μM DNA, 4 μM compound
[3] = system: py39 (DNA, i motif) CAGCCCCGCTCCCGCCCCCTTCCTCCCGCGCCCGCCCCT; assay: TO fluorescent intercalator displacement; settings: K+ (1x BPES: 100 mM KCl, potassium phosphate); 1x BPES pH 5.5; 1 μM DNA, 1 μM thiazole orange displaced
[4] = system: py27 (C-MYC) (DNA, i motif) CCTTCCCCACCCTCCCCACCCTCCCCA; assay: ITC; settings: 100 mM KCl, potassium phosphate 60 mM; 1× BPES (1 mM EDTA), pH 5.5, 25 °C; fitted to 1:1 model
[5] = system: GC duplex (py39+pu39) (DNA, duplex) CAGCCCCGCTCCCGCCCCCTTCCTCCCGCGCCCGCCCCT/AGGGGCGGGCGCGGGAGGAAGGGGGCGGGAGCGGGGCTG; assay: TO fluorescent intercalator displacement; settings: 20 mM NaCl; 20 mM Tris-HCl, pH 7.4; 1 μM DNA, 1 μM thiazole orange displaced
[6] = system: bio-C-KIT (DNA, i motif) CCCTCCTCCCAGCGCCCTCCCT; assay: SPR; settings: 100 mM KCl; 20 mM MES, pH 5.5, 25 °C; immobilised DNA
[7] = system: VEGF (DNA, i motif) GACCCCGCCCCCGGCCCGCCCCGG; assay: CD melting; settings: 100 mM KCl, potassium phosphate 60 mM; 1× BPES, pH 5.5; 1 μM DNA, 20 μM compound
[8] = system: Fpy27 (DNA, i motif) CCTTCCCCACCCTCCCCACCCTCCCCA; assay: MST; settings: 100 mM KCl, potassium phosphate 60 mM; 1× BPES (1 mM EDTA), pH 5.5, 25 °C
[9] = system: py27 (C-MYC) (DNA, i motif) CCTTCCCCACCCTCCCCACCCTCCCCA; assay: CD melting; settings: 100 mM KCl, potassium phosphate 60 mM; 1× BPES, pH 5.5; 1 μM DNA, 20 μM compound
[10] = system: py39 (DNA, i motif) CAGCCCCGCTCCCGCCCCCTTCCTCCCGCGCCCGCCCCT; assay: ITC; settings: 100 mM KCl, potassium phosphate 60 mM; 1× BPES (1 mM EDTA), pH 5.5, 25 °C; fitted to 1:1 model
[11] = system: py39 (DNA, i motif) CAGCCCCGCTCCCGCCCCCTTCCTCCCGCGCCCGCCCCT; assay: CD melting; settings: 100 mM KCl, potassium phosphate 60 mM; 1× BPES, pH 5.5; 1 μM DNA, 20 μM compound
[12] = system: Fpy27T (F-C-MYC-T) (DNA, i motif) CCTTCCCCACCCTCCCCACCCTCCCCA; assay: FRET melting; settings: 100 mM KCl, potassium phosphate 60 mM; 1× BPES, pH 5.5; 0.2 μM DNA, 4 μM compound
[13] = system: bio-py27 (bio-C-MYC) (DNA, i motif) CCTTCCCCACCCTCCCCACCCTCCCCA; assay: SPR; settings: 100 mM KCl; 20 mM MES, pH 5.5, 25 °C; immobilised DNA
[14] = system: bio-hairpin (DNA, hairpin, HEG (non-nucleotide) linker between nucleotides 10 and 11) TATAGCTATATATAGCTATA; assay: SPR; settings: 100 mM KCl; 20 mM Tris-HCl, pH 7.4, 25 °C; immobilised DNA
[15] = system: FVEGFT (DNA, i motif) GACCCCGCCCCCGGCCCGCCCCGG; assay: FRET melting; settings: 100 mM KCl, potassium phosphate 60 mM; 1× BPES, pH 5.5; 0.2 μM DNA, 4 μM compound
[16] = system: hairpin (DNA, hairpin) CGCGCGCGTTTTCGCGCGCG; assay: TO fluorescent intercalator displacement; settings: 1 μM DNA, 1 μM thiazole orange displaced
[17] = system: Fpy39 (DNA, i motif) CAGCCCCGCTCCCGCCCCCTTCCTCCCGCGCCCGCCCCT; assay: MST; settings: 100 mM KCl, potassium phosphate 60 mM; 1× BPES (1 mM EDTA), pH 5.5, 25 °C
[18] = system: bio-py39 (DNA, i motif) CAGCCCCGCTCCCGCCCCCTTCCTCCCGCGCCCGCCCCT; assay: SPR; settings: 100 mM KCl; 20 mM MES, pH 5.5, 25 °C; immobilised DNA
[19] = system: pu39 (DNA, G4) AGGGGCGGGCGCGGGAGGAAGGGGGCGGGAGCGGGGCTG; assay: TO fluorescent intercalator displacement; settings: K+ (100 mM KCl); 20 mM Tris-HCl pH 7.4; 1 μM DNA, 1 μM thiazole orange displaced
[20] = system: C-KIT (DNA, i motif) CCCTCCTCCCAGCGCCCTCCCT; assay: CD melting; settings: 100 mM KCl, potassium phosphate 60 mM; 1× BPES, pH 5.5; 1 μM DNA, 20 μM compound
[21] = system: FKRAST (DNA, i motif) GCCCGGCCCCCGCTCCTCCCCCGCCGGCCCGGCCCGGCCCCCTCCTTCTCCCCG; assay: FRET melting; settings: 100 mM KCl, potassium phosphate 60 mM; 1× BPES, pH 5.5; 0.2 μM DNA, 4 μM compound
[22] = system: KRAS (DNA, i motif) GCCCGGCCCCCGCTCCTCCCCCGCCGGCCCGGCCCGGCCCCCTCCTTCTCCCCG; assay: CD melting; settings: 100 mM KCl, potassium phosphate 60 mM; 1× BPES, pH 5.5; 1 μM DNA, 20 μM compound
[23] = system: bio-VEGF (DNA, i motif) GACCCCGCCCCCGGCCCGCCCCGG; assay: SPR; settings: 100 mM KCl; 20 mM MES, pH 5.5, 25 °C; immobilised DNA

- ΔTm [1]: -0.52 °C
- ΔTm [2]: 9.15 °C
- relative TO displacement ratio [3]: 52%
- KD [4]: 11.1 µM
- relative TO displacement ratio [5]: 6%
- KD [6]: 34.5 µM
- ΔTm [7]: 1.34 °C
- KD [8]: 10.95 µM
- ΔTm [9]: 4.26 °C
- KD [10]: 5.52 µM
- ΔTm [11]: 9.63 °C
- ΔTm [12]: 3.50 °C
- KD [13]: 11.95 µM
- KD [14]: > 50 µM
- ΔTm [15]: -0.64 °C
- relative TO displacement ratio [16]: 12%
- KD [17]: 4.69 µM
- KD [18]: 3.56 µM
- relative replacement ratio [19]: 10%
- ΔTm [20]: 0.20 °C
- ΔTm [21]: 1.17 °C
- ΔTm [22]: 1.03 °C
- KD [23]: 36.4 µM
SMILES: Cc1ccc2c(c1)c(=O)c1cc(C(=O)NCCCN3CCOCC3)ccc1n2-c1ccc(C(=O)NCCCN2CCOCC2)cc1
